Test results taken from patent US9205089B2, “Layer processing for pharmaceuticals” (Massachusetts Institute of Technology, priority 2011, dated 2015).

Key:
Assay type in all cases: physicochemical
[1] = DSC glass transition of rapid quench 50% ACM layers; settings: 50% ACM loading, DSC 10° C./min
Description: All analyses were carried out in triplicate.
Most thin layer drug products are initially amorphous, but tend to crystallize slowly over time. Time and material consuming storage experiments are usually required to study the stability of amorphous drug candidate. It is necessary to predict the amorphous stability of drug candidates early in the formulation process. However, the glass transition temperature of the polymer is masked by the melting peak of the drug and little extra information can be extracted. The DSC heating curve for a sample quench cooled after being melted gave information on the glass transition temperature, the crystallisation exotherm, and the melting endotherm (FIG. 21). Samples were prepared by melting in closed DSC pans from R.T. to 200° C. at a rate of 10° C./min and subsequently cooled to −10° C. at a cooling rate of 10° C./min. The pure ACM phases were well studied by DSC; the amorphous form a glass transition peak at 24.8° C., a crystallization peak between 65° C. to 100° C., a solid state transition at about 130° C. from Form III to Form II, and a melting peak for Form II at about 158° C.

[2] = Crystallization time of ACM in layers with different excipients; settings: 50% ACM layers
[3] = Stability test of […]/HPMC thin layer tablets stored at 40° C., 75% R.H. (HPLC); settings: Pure ALISKIREN (starting drug substance)
Description: Tablet forming was done by Instron and a force of up to 25 kN (9 mm diameter die) was recorded. The as-made thin layer tablets are then coated by Opadry AMB for 60 min, with the final coating taking up 10% of the tablet weight. Every 30 tablets were stored in a plastic vial of about 40 ml in volume together with a small standard drying bag. Vials were sealed using aluminum foil and placed at 40° C. for 75% R.H. for 1 month or 3 months. Samples of Aliskiren/HPMC thin layer tablets were tested by HPLC after peeling off the blue coating materials to avoid cross contamination. […] Water content was measured using a […] volumetric KF titration from Mettler Toledo. […] drug purity was verified by Agilent […] series high performance liquid chromatography (HPLC). All analyses were carried out in triplicate. […] The as-obtained tablets were then coated by Opadry AMB and placed at 40° C. for 75% R.H. for 1-month or 3-months stability tests.

[4] = HPLC purity of aliskiren in Aliskiren/HPMC layers under different drying conditions
Description: (§1) Water content was measured using a […] volumetric KF titration from Mettler Toledo. […] […] drug purity was verified by Agilent […] series high performance liquid chromatography (HPLC). All analyses were carried out in triplicate. […] In order to confirm the chemical stability of the drug, HPLC was used. Different experiments were carried out to examine the level of degradation of aliskiren as the drying temperature and time increased. […] The highest allowable drying temperature was set to be 70° C. At 70° C., 60 min was the minimum drying time required to have layers that peel easily and that contain solvent content under regulatory requirements (ethanol<0.5% and water %<0.5%). The layers were stored in a vacuum desiccator overnight to remove excess solvent, and then sealed under vacuum for storage and further characterization.

[5] = Solvent inspection of dried layers after storage in desiccator overnight
Description: as §1

## CC(=O)Nc1ccc(O)cc1 [ACM only, Acetaminophen]
[1]
  Tg: 24.8 °C
[2]
  Crystallization time: <6 h

## COCCCOc1cc(C[C@@H](C[C@H](N)[C@@H](O)C[C@H](C(=O)NCC(C)(C)C(N)=O)C(C)C)C(C)C)ccc1OC [Aliskiren]
[3]
  Purity of ALISKIREN: 99.6%
[4]; drying 30° C., 180 min
  ALISKIREN purity %: 99.6%
  One single impurity >0.2%: No
[4]; drying 50° C., 90 min
  ALISKIREN purity %: 99.5%
  One single impurity >0.2%: No
[4]; drying 50° C., 180 min
  ALISKIREN purity %: 99.5%
  One single impurity >0.2%: No
[4]; drying 70° C., 30 min
  ALISKIREN purity %: 99.5%
  One single impurity >0.2%: No
[4]; drying 70° C., 60 min
  ALISKIREN purity %: 99.3%
  One single impurity >0.2%: No
[4]; drying 70° C., 90 min
  ALISKIREN purity %: 99.2%
  One single impurity >0.2%: No
[4]; drying 90° C., 30 min
  ALISKIREN purity %: 98.8%
  One single impurity >0.2%: Yes
[5]; drying 30° C., 180 min
  Solvent inspection (<0.5%) after stored in dessicator overnight: Yes
[5]; drying 50° C., 90 min
  Solvent inspection (<0.5%) after stored in dessicator overnight: Yes
[5]; drying 50° C., 180 min
  Solvent inspection (<0.5%) after stored in dessicator overnight: Yes
[5]; drying 70° C., 60 min
  Solvent inspection (<0.5%) after stored in dessicator overnight: Yes
[5]; drying 70° C., 90 min
  Solvent inspection (<0.5%) after stored in dessicator overnight: Yes
